Counter-ions that a name gives are not always drawn.
molecular target: T1, human isoform of the Kv1.5 channels (Homo sapiens, UniProt P22460); test: FLIPR thallium ion measurement on potassium channel Kv1.5; format: cell-based; details: HEK293 cells stably transfected with hKv1.5; compound 10 μM, 15 min at 37° C.; fluorescence normalised with 10 μM DPO
T1 construct: expressed in transfected cells; host or cells: HEK293
Experimental: The pharmacological evaluation of the compounds on potassium channel Kv1.5 was undertaken using a 96-well plate and FLIPR technology by thallium ion measurement. The HEK293 cells, transfected in a stable manner with the human isoform of the Kv1.5 channels, are seeded 24 h before the experiment in 96-well plates ([…], 200 μl/well) with polylysine applied in the following culture medium: DMEM, 10% SVF, Penicillin/Streptomycin, G418 as the selection antibiotic.
The FLIPR experiment is undertaken using “FLIPR Potassium Ion Channel Assay Kit”, as indicated by the manufacturer (Molecular Devices).
Briefly, the culture medium is replaced by the solution containing the thallium marker for 90 min at 37° C. On conclusion of this step the compounds for testing are added to a final concentration of 10 μM in the well for 15 min at 37° C. The basic fluorescence is then read for 60 sec. The addition of depolarising medium (20 mM of potassium and 3 mM of final thallium) opens the potassium channels and causes an increase of the fluorescence of the thallium fluorophore corresponding to an influx of thallium ions through the hKv1.5 channels. The measurement is made 30 sec after the injection of the depolarising solution. The application of 10 μM DPO (Tocris, blocker of the Kv1.5 channels) enables the fluorescence to be normalised.

T1 sequence (P22460 whole entry, canonical isoform): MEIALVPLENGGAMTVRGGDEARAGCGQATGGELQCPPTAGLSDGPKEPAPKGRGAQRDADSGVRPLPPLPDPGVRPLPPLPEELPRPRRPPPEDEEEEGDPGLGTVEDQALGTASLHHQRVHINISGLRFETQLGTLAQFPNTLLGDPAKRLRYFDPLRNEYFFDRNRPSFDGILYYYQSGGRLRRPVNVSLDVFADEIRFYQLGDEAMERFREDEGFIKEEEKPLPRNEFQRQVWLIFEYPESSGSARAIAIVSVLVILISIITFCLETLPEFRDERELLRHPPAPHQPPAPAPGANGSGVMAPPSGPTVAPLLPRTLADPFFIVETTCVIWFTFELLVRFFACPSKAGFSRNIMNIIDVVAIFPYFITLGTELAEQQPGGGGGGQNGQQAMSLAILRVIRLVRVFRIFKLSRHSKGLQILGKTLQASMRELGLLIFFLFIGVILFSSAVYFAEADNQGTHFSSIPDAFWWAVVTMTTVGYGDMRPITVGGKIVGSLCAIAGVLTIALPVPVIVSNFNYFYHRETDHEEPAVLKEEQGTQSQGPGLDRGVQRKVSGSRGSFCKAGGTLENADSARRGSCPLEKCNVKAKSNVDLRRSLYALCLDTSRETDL

In order of falling inhibition at 10 µM:
1. O=C(c1ccccc1NS(=O)(=O)c1ccccn1)N1CCN(c2nc3ccc(Cl)cc3s2)CC1 [Example 4, N-(2-(4-(6-chlorobenzo[d]thiazol-2-yl)piperazine-1-carbonyl)phenyl)pyridine-2-sulfonamide hydrochloride]  100%
2. O=S(=O)(Nc1ccccc1OC1CCN(c2nc3ccc(Br)cc3s2)CC1)c1ccccn1 [Example 27, N-(2-(1-(6-bromobenzo[d]thiazol-2-yl)piperidin-4-yloxy)phenyl)-pyridine-2-sulfonamide]  100%
3. O=C(c1ccc(NS(=O)(=O)c2ccccn2)cc1)N1CCN(c2nc3ccc(F)cc3o2)CC1 [Example 13, N-(4-(4-(6-fluorobenzo[d]oxazol-2-yl)piperazine-1-carbonyl)phenyl)pyridine-2-sulfonamide]  100%
4. O=C(c1ccccc1NS(=O)(=O)c1ccccn1)N1CCN(c2nc3ccc(F)cc3s2)CC1 [Example 2, N-(2-(4-(6-fluorobenzo[d]thiazol-2-yl)piperazine-1-carbonyl)phenyl)-pyridine-2-sulfonamide]  100%
5. O=C(c1ccccc1NS(=O)(=O)c1ccccn1)N1CCN(c2nc3cc(C(F)(F)F)ccc3s2)CC1 [Example 7, N-(2-(4-(5-(trifluoromethyl)benzo[d]thiazol-2-yl)piperazine-1-carbonyl)phenyl)pyridine-2-sulfonamide]  94.9%
6. O=C(c1ccccc1NS(=O)(=O)c1ccc(C(F)(F)F)cn1)N1CCN(c2nc3ccc(Cl)cc3s2)CC1 [Example 8, N-(2-(4-(6-chlorobenzo[d]thiazol-2-yl)piperazine-1-carbonyl)phenyl)-5-(trifluoromethyl)pyridine-2-sulfonamide]  94.7%
7. O=C(c1ccccc1NS(=O)(=O)c1ccccn1)N1CCN(c2nc3cccc(Cl)c3s2)CC1 [Example 6, N-(2-(4-(7-chlorobenzo[d]thiazol-2-yl)piperazine-1-carbonyl)phenyl)-pyridine-2-sulfonamide]  91.8%
8. O=C(c1ccccc1NS(=O)(=O)c1cccc2cccnc12)N1CCN(c2nc3ccc(Cl)cc3s2)CC1 [Example 18, N-(2-(4-(6-chlorobenzo[d]thiazol-2-yl)piperazine-1-carbonyl)-phenyl)quinoline-8-sulfonamide]  91.5%
9. O=S(=O)(Nc1ccccc1OC1CCN(c2nc3ccccc3s2)CC1)c1ccccn1 [Example 25, N-(2-(1-(benzo[d]thiazol-2-yl)piperidin-4-yloxy)phenyl)pyridine-2-sulfonamide]  90.2%
10. Cc1cccc2sc(N3CCN(C(=O)c4ccccc4NS(=O)(=O)c4ccccn4)CC3)nc12 [Example 5, N-(2-(4-(4-methylbenzo[d]thiazol-2-yl)piperazine-1-carbonyl)phenyl)-pyridine-2-sulfonamide]  90%
11. Cc1cccc2sc(N3CCCN(C(=O)c4ccccc4NS(=O)(=O)c4cccc5cccnc45)CC3)nc12 [Example 20, N-(2-(4-(4-methylbenzo[d]thiazol-2-yl)-1,4-diazepane-1-carbonyl)-phenyl)quinoline-8-sulfonamide]  82.8%
12. O=S(=O)(Nc1ccccc1OC1CCN(c2nc3cc(Cl)ccc3o2)CC1)c1ccccn1 [Example 24, N-(2-(1-(5-chlorobenzo[d]oxazol-2-yl)piperidin-4-yloxy)phenyl)-pyridine-2-sulfonamide]  81%
13. O=S(=O)(Nc1ccccc1OCC1CCN(c2nc3ccccc3s2)C1)c1ccccn1 (stereo not shown) [Example 28, N-(2-((1-(benzo[d]thiazol-2-yl)pyrrolidin-3-yl)methoxy)phenyl)-pyridine-2-sulfonamide]  76%
14. O=C(c1cccc(NS(=O)(=O)c2ccccn2)c1)N1CCN(c2nc3ccc(Cl)cc3s2)CC1 [Example 11, N-(3-(4-(6-chlorobenzo[d]thiazol-2-yl)piperazine-1-carbonyl)phenyl)-pyridine-2-sulfonamide]  75.1%
15. O=C(c1ccccc1NS(=O)(=O)c1cccc2cccnc12)N1CCN(c2nc3ccc(Cl)cc3o2)CC1 [Example 17, N-(2-(4-(6-chlorobenzo[d]oxazol-2-yl)piperazine-1-carbonyl)-phenyl)quinoline-8-sulfonamide]  70.8%
16. O=C(c1ccc(NS(=O)(=O)c2ccccn2)cc1)N1CCN(c2nc3ccc(Cl)cc3s2)CC1 [Example 15, N-(4-(4-(6-chlorobenzo[d]thiazol-2-yl)piperazine-1-carbonyl)-phenyl)pyridine-2-sulfonamide]  70.2%
17. O=C(c1ccc(NS(=O)(=O)c2ccccn2)cc1)N1CCN(c2nc3ccc(Cl)cc3o2)CC1 [Example 14, N-(4-(4-(6-chlorobenzo[d]oxazol-2-yl)piperazine-1-carbonyl)phenyl)pyridine-2-sulfonamide]  68.7%
18. O=C(c1ccccc1NS(=O)(=O)c1cccc2cccnc12)N1CCN(c2nc3ccc(Br)cc3s2)CC1 [Example 16, N-(2-(4-(6-bromobenzo[d]thiazol-2-yl)piperazine-1-carbonyl)phenyl)-quinoline-8-sulfonamide]  68%
19. O=S(=O)(Nc1ccccc1OC1CCN(c2nc3ccc(Cl)cc3s2)CC1)c1ccccn1 [Example 26]  65.8%
20. O=S(=O)(Nc1ccccc1OCC1CCN(c2nc3ccc(F)cc3s2)C1)c1ccccn1 (stereo not shown) [Example 29, N-(2-((1-(6-fluorobenzo[d]thiazol-2-yl)pyrrolidin-3-yl)methoxy)phenyl)pyridine-2-sulfonamide]  64.5%
21. Cc1cccc(S(=O)(=O)Nc2ccccc2C(=O)N2CCN(c3nc4ccc(Br)cc4s3)CC2)n1 [Example 9, N-(2-(4-(6-bromobenzo[d]thiazol-2-yl)piperazine-1-carbonyl)phenyl)-6-methylpyridine-2-sulfonamide dihydrochloride]  62.8%
22. O=C(c1ccccc1NS(=O)(=O)c1ccc(C(F)(F)F)cn1)N1CCN(c2nc3ccc(F)cc3o2)CC1 [Example 1, N-(2-(4-(6-fluorobenzo[d]oxazol-2-yl)piperazine-1-carbonyl)phenyl)-5-(trifluoromethyl)pyridine-2-sulfonamide]  61.4%
23. O=C(c1cccc(NS(=O)(=O)c2ccccn2)c1)N1CCN(c2nc3ccc(Cl)cc3o2)CC1 [Example 10, N-(3-(4-(6-chlorobenzo[d]oxazol-2-yl)piperazine-1-carbonyl)-phenyl)pyridine-2-sulfonamide]  58.9%
24. O=S(=O)(Nc1ccccc1OC1CCN(c2nc3ccc(Cl)cc3o2)CC1)c1ccccn1 [Example 22, N-(2-(1-(6-chlorobenzo[d]oxazol-2-yl)piperidin-4-yloxy)phenyl)-pyridine-2-sulfonamide]  58.8%
25. Cc1cccc2sc(N3CCC(COc4ccccc4NS(=O)(=O)c4ccccn4)C3)nc12 (stereo not shown) [Example 31, N-(2-((1-(4-methylbenzo[d]thiazol-2-yl)pyrrolidin-3-yl)methoxy)phenyl)pyridine-2-sulfonamide]  56%
26. Cc1ccc2nc(N3CCC(Oc4ccccc4NS(=O)(=O)c4ccccn4)CC3)oc2c1 [Example 21, N-(2-(1-(6-methylbenzo[d]oxazol-2-yl)piperidin-4-yloxy)phenyl)pyridine-2-sulfonamide]  54.6%
27. O=S(=O)(Nc1ccccc1OCC1CCN(c2nc3ccc(Cl)cc3s2)C1)c1ccccn1 (stereo not shown) [Example 30, N-(2-((1-(6-chlorobenzo[d]thiazol-2-yl)pyrrolidin-3-yl)methoxy)phenyl)pyridine-2-sulfonamide]  54.1%
28. COc1cccc2sc(N3CCC(COc4ccccc4NS(=O)(=O)c4ccccn4)C3)nc12 (stereo not shown) [Example 32, N-(2-((1-(4-methoxybenzo[d]thiazol-2-yl)pyrrolidin-3-yl)methoxy)-phenyl)pyridine-2-sulfonamide]  53.7%
29. Cc1cccc(S(=O)(=O)Nc2cccc(C(=O)N3CCN(c4nc5ccc(Cl)cc5s4)CC3)c2)n1 [Example 12, N-(3-(4-(6-chlorobenzo[d]thiazol-2-yl)piperazine-1-carbonyl)-phenyl)-6-methylpyridine-2-sulfonamide]  52.6%
30. CC(C)(C)c1ccc2oc(N3CCC(Oc4ccccc4NS(=O)(=O)c4ccccn4)CC3)nc2c1 [Example 23, N-(2-(1-(5-tert-butylbenzo[d]oxazol-2-yl)piperidin-4-yloxy)phenyl)pyridine-2-sulfonamide]  51.8%
31. O=C(c1ccccc1NS(=O)(=O)c1cccc2cccnc12)N1CCN(c2nc3ccc(OC(F)(F)F)cc3s2)CC1 [Example 19, N-(2-(4-(6-(trifluoromethoxy)benzo[d]thiazol-2-yl)piperazine-1-carbonyl)phenyl)quinoline-8-sulfonamide]  50.2%

In the case of `O=C(c1ccccc1NS(=O)(=O)c1ccccn1)N1CCN(c2nc3ccc(Br)cc3s2)CC1` [Example 3, N-(2-(4-(6-bromobenzo[d]thiazol-2-yl)piperazine-1-carbonyl)phenyl)-pyridine-2-sulfonamide], the “% inhibition at 10 μM” value is reported as 100%.

test system: not given; test: not given; details: not given

In order of falling melting point:
1. Cc1cccc(S(=O)(=O)Nc2ccccc2C(=O)N2CCN(c3nc4ccc(Br)cc4s3)CC2)n1 (as salt: hydrochloride) [Example 9, N-(2-(4-(6-bromobenzo[d]thiazol-2-yl)piperazine-1-carbonyl)phenyl)-6-methylpyridine-2-sulfonamide dihydrochloride]  180 °C
2. O=C(c1ccccc1NS(=O)(=O)c1ccccn1)N1CCN(c2nc3ccc(Br)cc3s2)CC1 [Example 3, N-(2-(4-(6-bromobenzo[d]thiazol-2-yl)piperazine-1-carbonyl)phenyl)-pyridine-2-sulfonamide]  102 °C

Source: patent US9156834B2, “Derivatives of heteroarylsulfonamides, their preparation and their application in human therapy” (PIERRE FABRE MEDICAMENT, priority 2010, dated 2015)
